What all share (format): cell-based, human
In assay [1] the test system is HepG2 cells. Description: LDL uptake assay (fluorescent DiI-LDL method). Particulars: for LDL UPTAKE % STIMULATION: HepG2. How it is done: LDL uptake in HepG2 cells cultured in 12 well plates (Costar) at 2 X 10^5 per well was assayed by the fluorescent LDL method using a fluorescence microscope and video camera (SIT 66) attached to computer (Laser 25) with JAVA image analysis software (Jandel Scientific, CA) as previously reported (Grove, et al.,). […] Specifically, 2 ug/ml Dil-LDL in serum free media was added to HepG2 monolayers for two hours. The monolayers were washed 3 times to remove free Dil-LDL and fixed with 4% formalin in phosphate-buffered saline. Accumulated fluorescence was measured by quantitating the average intensity of 25 - 50 cells. Three difference fields in each of duplicate or triplicate monolayers were quantitated and averaged. The amount of LDL protein taken up was determined as follows. Unfixed cell monolayers were solubilized with 0.1% sodium dodecyl sulfate, transferred into glass tubes, and the lipids (and Dil) were extracted into chloroform using the Bligh-Dyer extraction procedure. Fluorescence in the chloroform layer was quantitated with a fluorescence spectrophotometer (Perkin-Elmer) and compared with a standard curve generated by extracting Dil from known quantities of Dil-LDL. Coomassie blue kits (Pierce) were used to estimate cell proteins.

Assay [2] deals with diacylglycerol. Description: Lipid analysis: diacylglycerol levels ([3H]-glycerol labelling, TLC). Particulars: genistein. How it is done:
Lipids from cells radiolabeled with [^32P]-orthophosphate or with (^3H]-glycerol were extracted by a modification of the method of Bligh and Dyer. Extracts, dried under a stream of nitrogen, were solublized with 100 ul of chloroform and spotted on thin-layer chromatography (TLC) plates (Silica Gel 60, Merck). The phospholipids were resolved either with a solvent system designed to separate the inositides (propanol: 4.3 M ammonium hydroxide, 65:35 v/v) or with a system designed to separate phosphatidylcholine and phosphatidylethanolamine (chloroform:methanol:acetic acid:water (50:35:8:1, v/v). Neutral lipids were resolved in a tank containing benzene:ethyl acetate (80:20, v/v). The radiolabeled phospholipids were identified as spots on autoradiographs which comigrated with authentic standards (detected with iodine vapors), were scraped into scintillation vials, and were quantitated in a scintillation counter. Neutral lipid standards (diacylglycerol and triacylglycerol) which were added to the [^3H)- glycerol labeled lipid extracts before chromatography were identified with iodine vapors, scraped into scintillation vials, and analyzed as outlined above.

Assay [3] has as its system tyrosine phosphorylation in HepG2 proteins. Description: Phosphotyrosine proteins (antiphosphotyrosine immunoblot). How it is done:
HepG2 cells were plated into six well plates at 4 x 10^5 cells/well. After 48 hours (about 70% confluency), the cells were incubated with Oncostatin M or drugs for the indicated time, rapidly washed once with ice cold PBS, and lysed with 100ul of SDS-sample buffer containing 1 mM mercaptoethanol and 500 uM sodium vanadate. The bufer was rapidly mixed over the entire well before being removed and heated to 100° C for 15 minutes. The samples (25 ul) were separated by SDS-PAGE on 10-20% gradient gels and […] to Hybond C Extra membranes (Amersham). […] Proteins containing phosphotyrosine were detected using an affinity purified rabbit antiphosphotyrosine antibody followed by ['^251]-labeled protein A (ICN).
Background: Immunoblotting shows a protein as a band on a membrane.

Regarding `O=c1c(-c2ccc(O)cc2)coc2cc(O)cc(O)c12` [Genistein], the “LDL UPTAKE % STIMULATION” value in assay [1] is reported as -10%. In addition, the “effect on Oncostatin M-induced elevations in LDLR activity” value in assay [1] (genistein) is “inhibited”. Moreover, in assay [2], the “effect on Oncostatin M-induced elevations in diacylglycerol” value is “inhibited”. In addition, the “effect on Oncostatin M-induced tyrosine phosphorylation” value in assay [3] (genistein 30 ug/ml, 30 minutes before Oncostatin M (100 ng/ml, 10 minutes)) is “mitigated”.

On to `CC1CNCCN1S(=O)(=O)c1cccc2cnccc12` (stereo not drawn) [H-7], for which the “effect on increase in LDL uptake induced by Oncostatin M” value in assay [1] (10 ug/ml H-7 for 30 min, then 4 hours Oncostatin M (100 ng/ml)) was “prevented the increases in LDL uptake”. Moreover, the “effect on increase in LDL uptake induced by PMA” value in assay [1] (10 ug/ml H-7 for 30 min, then 4 hours PMA (10 nM)) is on record as “prevented the increases in LDL uptake”.

With `CCCCCCCCCCCCCC(=O)O[C@@H]1[C@@H](C)[C@@]2(O)[C@@H](C=C(CO)C[C@]3(O)C(=O)C(C)=C[C@@H]23)[C@@H]2C(C)(C)[C@]12OC(C)=O` [PMA, phorbol 12-myristate 13-acetate], the LDL uptake entry in assay [1] (PMA 10 nM, 4 hours, time dependency similar to Oncostatin M) is “induced LDL uptake”. In addition, the “effect on the inhibition of LDLR expression with genistein” value in assay [1] (PMA 50 nM added to genistein-inhibited HepG2 cells) is “reversed”.

Turning to vanadate, the “LDL UPTAKE % STIMULATION” value in assay [1] turned out to be 6%. For the same molecule, in assay [1] (vanadate with Oncostatin M), the “effect on LDLR expression stimulation by Oncostatin M” value is on record as “synergistically enhance”. For the same molecule, the “TYROSINE PHOSHORYLATION” value in assay [3] (HepG2, grades - to + + + + +, legend not given) is reported as “+ + +”. In addition, the “effect on tyrosine kinase stimulation by Oncostatin M” value in assay [3] (vanadate with Oncostatin M) is “synergistically enhance”.
